{
  "source": "patent US20240376099A1",
  "about": "“COMPOUNDS AND COMPOSITIONS AS INHIBITORS OF ENDOSOMAL TOLL-LIKE RECEPTORS” (Novartis AG, priority 2016, published 2024)",
  "data": [
    {"biological_target": "T1, TLR8 (Homo sapiens, UniProt Q9NR97)", "T1 sequence (Q9NR97 27-1041)": "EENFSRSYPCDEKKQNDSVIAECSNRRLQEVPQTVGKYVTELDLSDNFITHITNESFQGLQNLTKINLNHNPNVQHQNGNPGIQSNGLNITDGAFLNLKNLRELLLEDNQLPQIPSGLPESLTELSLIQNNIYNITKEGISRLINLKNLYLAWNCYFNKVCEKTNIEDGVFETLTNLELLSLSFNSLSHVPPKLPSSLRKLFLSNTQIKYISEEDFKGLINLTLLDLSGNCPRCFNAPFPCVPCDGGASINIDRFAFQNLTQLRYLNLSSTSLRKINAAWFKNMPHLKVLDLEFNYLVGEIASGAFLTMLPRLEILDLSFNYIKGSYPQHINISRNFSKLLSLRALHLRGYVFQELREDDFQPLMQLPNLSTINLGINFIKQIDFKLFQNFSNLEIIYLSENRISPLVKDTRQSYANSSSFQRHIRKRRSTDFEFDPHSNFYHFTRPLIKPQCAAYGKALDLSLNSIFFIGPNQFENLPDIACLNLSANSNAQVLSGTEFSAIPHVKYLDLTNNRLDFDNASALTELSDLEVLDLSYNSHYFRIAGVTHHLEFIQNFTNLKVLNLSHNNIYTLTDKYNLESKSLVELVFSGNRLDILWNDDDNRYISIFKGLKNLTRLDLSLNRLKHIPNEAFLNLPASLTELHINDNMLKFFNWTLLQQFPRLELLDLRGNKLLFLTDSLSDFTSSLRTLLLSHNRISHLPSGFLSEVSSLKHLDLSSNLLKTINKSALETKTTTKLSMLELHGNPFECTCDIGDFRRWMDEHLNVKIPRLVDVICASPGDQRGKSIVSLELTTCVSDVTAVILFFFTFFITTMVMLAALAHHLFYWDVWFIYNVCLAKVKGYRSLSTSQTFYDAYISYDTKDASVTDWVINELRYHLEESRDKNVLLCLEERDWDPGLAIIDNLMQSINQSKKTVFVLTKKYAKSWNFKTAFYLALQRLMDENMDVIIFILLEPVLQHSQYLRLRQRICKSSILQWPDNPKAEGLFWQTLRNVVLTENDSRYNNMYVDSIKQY", "assay": "huPBMC TLR8 Antagonist IL-6 TR-FRET Assay", "format": "cell-based", "parameters": "Fresh blood was collected from normal human donors; endogenous in cells; host or cells: human PBMCs from fresh donor blood", "conditions": "human PBMCs stimulated with ssRNA40 1 μg/ml (DOTAP), 14-16 hrs; IL-6 TR-FRET read-out", "in_short": "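Human PBMCs from fresh donor blood (150,000 cells/well) stimulated 14–16 h at 37 °C with DOTAP-complexed ssRNA40 (final 1 μg/ml for TLR8, 10 μg/mL for TLR7) or ODN2216 (final 0.3 μM, TLR9), 0.25% DMSO, ten-point 1/3 compound dilutions. Supernatant IL-6 read by HTRF (TLR8); IFNα by IFNα2b AlphaLISA (TLR7/TLR9).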", "units": {"IC50": "µM"}, "values": [
      {"smiles": "Cc1cc(N2CCc3nn(CC45CC(N)(C4)C5)c(C)c3C2)c2cnn(C)c2n1", "note": "[compound 52, 3-((5-(1,6-dimethyl-1H-pyrazolo[3,4-b]pyridin-4-yl)-3-methyl-4,5,6,7-tetrahydro-2H-pyrazolo[4,3-c]pyridin-2-yl)methyl)bicyclo[1.1.1]pentan-1-amine]", "IC50": "> 10"},
      {"smiles": "Cc1cc(N2CCc3c(c(C)nn3CC34CCC(N(C)C(=O)OC(C)(C)C)(CC3)CC4)C2)c2cnn(C)c2n1", "note": "[Compound No. 49, tert-butyl (4-((5-(1,6-dimethyl-1H-pyrazolo[3,4-b]pyridin-4-yl)-3-methyl-4,5,6,7-tetrahydro-1H-pyrazolo[4,3-c]pyridin-1-yl)methyl)bicyclo[2.2.2]octan-1-yl)(methyl)carbamate]", "IC50": "> 10"},
      {"smiles": "Cc1cc(N2CCc3c(c(C)nn3CC34CCC(N5CC[C@H](O)C5)(CC3)CC4)C2)c2cnn(C)c2n1", "note": "[compound 75, (S)-1-(4-((5-(1,6-dimethyl-1H-pyrazolo[3,4-b]pyridin-4-yl)-3-methyl-4,5,6,7-tetrahydro-1H-pyrazolo[4,3-c]pyridin-1-yl)methyl)bicyclo[2.2.2]octan-1-yl)pyrrolidin-3-ol]", "IC50": 0.134},
      {"smiles": "CCOCCN(CCOCC)C12CCC(Cn3nc(C)c4c3CCN(c3cc(C)nc5c3cnn5C)C4)(CC1)CC2", "note": "[compound 72, 4-((5-(1,6-dimethyl-1H-pyrazolo[3,4-b]pyridin-4-yl)-3-methyl-4,5,6,7-tetrahydro-1H-pyrazolo[4,3-c]pyridin-1-yl)methyl)-N,N-bis(2-ethoxyethyl)bicyclo[2.2.2]octan-1-amine]", "IC50": 0.102},
      {"smiles": "Cc1cc(N2CCc3c(c(C)nn3CC34CCC(N(C)C5COC5)(CC3)CC4)C2)c2cnn(C)c2n1", "note": "[Compound No. 77, N-(4-((5-(1,6-dimethyl-1H-pyrazolo[3,4-b]pyridin-4-yl)-3-methyl-4,5,6,7-tetrahydro-1H-pyrazolo[4,3-c]pyridin-1-yl)methyl)bicyclo[2.2.2]octan-1-yl)-N-methyloxetan-3-amine]", "IC50": 0.316},
      {"smiles": "CNC12CCC(Cn3nc(C)c4c3CCN(c3cc(C)nc5c3cnn5C)C4)(CC1)CC2", "note": "[Compound No. 50, 4-((5-(1,6-dimethyl-1H-pyrazolo[3,4-b]pyridin-4-yl)-3-methyl-4,5,6,7-tetrahydro-1H-pyrazolo[4,3-c]pyridin-1-yl)methyl)-N-methylbicyclo[2.2.2]octan-1-amine]", "IC50": 0.308},
      {"smiles": "COc1ccc(Cn2ncc3c(N4CCc5c(c(C)nn5CC56CCC(N)(CC5)CC6)C4)cc(C)nc32)cc1", "note": "[Compound No. 53, 4-((5-(1-(4-methoxybenzyl)-6-methyl-1H-pyrazolo[3,4-b]pyridin-4-yl)-3-methyl-4,5,6,7-tetrahydro-1H-pyrazolo[4,3-c]pyridin-1-yl)methyl)bicyclo[2.2.2]octan-1-amine]", "IC50": 1.14},
      {"smiles": "CCNC12CCC(Cn3nc(C)c4c3CCN(c3cc(C)nc5c3cnn5C)C4)(CC1)CC2", "note": "[compound 57, 4-((5-(1,6-dimethyl-1H-pyrazolo[3,4-b]pyridin-4-yl)-3-methyl-4,5,6,7-tetrahydro-1H-pyrazolo[4,3-c]pyridin-1-yl)methyl)-N-ethylbicyclo[2.2.]octan-1-amine]", "IC50": 0.11},
      {"smiles": "Cc1cc(N2CCc3c(c(C)nn3CC34CCC(NC5CCC5)(CC3)CC4)C2)c2cnn(C)c2n1", "note": "[compound 54, N-cyclobutyl-4-((5-(1,6-dimethyl-1H-pyrazolo[3,4-b]pyridin-4-yl)-3-methyl-4,5,6,7-tetrahydro-1H-pyrazolo[4,3-c]pyridin-1-yl)methyl)bicyclo[2.2.2]octan-1-amine]", "IC50": 0.074},
      {"smiles": "Cc1cc(N2CCc3c(c(C)nn3CCC34CCC(N)(CC3)CC4)C2)c2cnn(C)c2n1", "note": "[compound 91, 4-(2-(5-(1,6-dimethyl-1H-pyrazolo[3,4-b]pyridin-4-yl)-3-methyl-4,5,6,7-tetrahydro-1H-pyrazolo[4,3-c]pyridin-1-yl)ethyl)bicyclo[2.2.2]octan-1-amine]", "IC50": 0.377},
      {"smiles": "Cc1cc(N2CCc3c(c(C)nn3CC34CCC(N5CCCC5)(CC3)CC4)C2)c2ccncc2n1", "note": "[compound 86, 2-methyl-4-(3-methyl-1-((4-(pyrrolidin-1-yl)bicyclo[2.2.2]octan-1-yl)methyl)-6,7-dihydro-1H-pyrazolo[4,3-c]pyridin-5(4H)-yl)-1,7-naphthyridine]", "IC50": 0.048},
      {"smiles": "Cc1cc(N2CCc3c(c(C)nn3CC34CCC(N)(CC3)CC4)C2)c2cnn(C)c2n1", "note": "[Compound No. 1, 4-((5-(1,6-dimethyl-1H-pyrazolo[3,4-b]pyridin-4-yl)-3-methyl-4,5,6,7-tetrahydro-1H-pyrazolo[4,3-c]pyridin-1-yl)methyl)bicyclo[2.2.2]octan-1-amine]", "IC50": 0.236},
      {"smiles": "Cc1cc(N2CCc3c(c(C)nn3CC34CCC(N)(CC3)CC4)C2)c2ccnc(C)c2n1", "note": "[compound 92, 4-((5-(2,8-dimethyl-1,7-naphthyridin-4-yl)-3-methyl-4,5,6,7-tetrahydro-1H-pyrazolo[4,3-c]pyridin-1-yl)methyl)bicyclo[2.2.2]octan-1-amine]", "IC50": 0.04},
      {"smiles": "Cc1cc(N2CCc3c(c(C)nn3CC34CCC(NC(C)C)(CC3)CC4)C2)c2cnn(C)c2n1", "note": "[compound 55, 4-((5-(1,6-dimethyl-1H-pyrazolo[3,4-b]pyridin-4-yl)-3-methyl-4,5,6,7-tetrahydro-1H-pyrazolo[4,3-c]pyridin-1-yl)methyl)-N-isopropylbicyclo[2.2.]octan-1-amine]", "IC50": 0.42},
      {"smiles": "Cc1cc(N2CCc3c(c(C)nn3CC34CCC(N5CCC5)(CC3)CC4)C2)c2cnn(C)c2n1", "note": "[compound 64, 1-((4-(azetidin-1-yl)bicyclo[2.2.2]octan-1-yl)methyl)-5-(1,6-dimethyl-1H-pyrazolo[3,4-b]pyridin-4-yl)-3-methyl-4,5,6,7-tetrahydro-1H-pyrazolo[4,3-c]pyridine]", "IC50": 0.115},
      {"smiles": "Cc1cc(N2CCc3c(c(C)nn3CC34CCC(NC(=O)OC5(C)CC5)(CC3)CC4)C2)c2cnn(C)c2n1", "note": "[Compound No. 51, 1-methylcyclopropyl (4-((5-(1,6-dimethyl-1H-pyrazolo[3,4-b]pyridin-4-yl)-3-methyl-4,5,6,7-tetrahydro-1H-pyrazolo[4,3-c]pyridin-1-yl)methyl)bicyclo[2.2.2]octan-1-yl)carbamate]", "IC50": "> 10"},
      {"smiles": "Cc1cc(N2CCc3c(c(C)nn3CC34CCC(O)(CC3)CC4)C2)c2cnn(C)c2n1", "note": "[compound 46, 4-((5-(1,6-dimethyl-1H-pyrazolo[3,4-b]pyridin-4-yl)-3-methyl-4,5,6,7-tetrahydro-1H-pyrazolo[4,3-c]pyridin-1-yl)methyl)bicyclo[2.2.2]octan-1-ol]", "IC50": "> 10"},
      {"smiles": "Cc1cc(N2CCc3c(c(C)nn3CC34CCC(N)(CC3)CC4)C2)c2cn[nH]c2n1", "note": "[Compound No. 2, 4-((3-methyl-5-(6-methyl-1H-pyrazolo[3,4-b]pyridin-4-yl)-4,5,6,7-tetrahydro-1H-pyrazolo[4,3-c]pyridin-1-yl)methyl)bicyclo[2.2.2]octan-1-amine]", "IC50": "> 10"},
      {"smiles": "Cc1cc(N2CCc3c(c(C)nn3CC34CCC(N(C)C5CCC5)(CC3)CC4)C2)c2cnn(C)c2n1", "note": "[compound 79, N-cyclobutyl-4-((5-(1,6-dimethyl-1H-pyrazolo[3,4-b]pyridin-4-yl)-3-methyl-4,5,6,7-tetrahydro-1H-pyrazolo[4,3-c]pyridin-1-yl)methyl)-N-methylbicyclo[2.2.2]octan-1-amine]", "IC50": 0.136},
      {"smiles": "Cc1cc(N2CCc3c(c(C)nn3CC34CCC(N5C[C@@H](O)[C@@H](O)C5)(CC3)CC4)C2)c2cnn(C)c2n1", "note": "[compound 74, (3S,4R)-1-(4-((5-(1,6-dimethyl-1H-pyrazolo[3,4-b]pyridin-4-yl)-3-methyl-4,5,6,7-tetrahydro-1H-pyrazolo[4,3-c]pyridin-1-yl)methyl)bicyclo[2.2.2]octan-1-yl)pyrrolidine-3,4-diol]", "IC50": 0.158},
      {"smiles": "CCOCCNC12CCC(Cn3nc(C)c4c3CCN(c3cc(C)nc5c3cnn5C)C4)(CC1)CC2", "note": "[compound 71, 4-((5-(1,6-dimethyl-1H-pyrazolo[3,4-b]pyridin-4-yl)-3-methyl-4,5,6,7-tetrahydro-1H-pyrazolo[4,3-c]pyridin-1-yl)methyl)-N-(2-ethoxyethyl)bicyclo[2.2.2]octan-1-amine]", "IC50": 0.014}
    ]}
  ]
}
